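Cells were grown in 96-well plates and exposed to each compound for 48 hours at five concentrations; endpoints were interpolated linearly between bracketing concentrations, or set to the highest concentration if not reached. Abbreviation: GI50, concentration required for 50% inhibition of growth. TGI: total growth inhibition.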
Experiments:
Experiment in all cases: NCI-60 cell line screen, 48 h
SK-OV-3 ovarian = system: SK-OV-3 ovarian
SW-620 colon = system: SW-620 colon
MDA-MB-231 breast = system: MDA-MB-231 breast
MDA-MB-435 = system: MDA-MB-435
COLO 205 colon = system: COLO 205 colon
SK-MEL-28 melanoma = system: SK-MEL-28 melanoma
UACC-62 melanoma = system: UACC-62 melanoma
U251 CNS = system: U251 CNS
NCI-H522 lung = system: NCI-H522 lung
OVCAR-3 ovarian = system: OVCAR-3 ovarian
CCRF-CEM leukemia = system: CCRF-CEM leukemia
OVCAR-5 ovarian = system: OVCAR-5 ovarian
MALME-3M melanoma = system: MALME-3M melanoma
HS 578T breast = system: HS 578T breast
SNB-19 CNS = system: SNB-19 CNS
RPMI-8226 leukemia = system: RPMI-8226 leukemia
BT-549 breast = system: BT-549 breast
NCI-H460 lung = system: NCI-H460 lung
RXF 393 renal = system: RXF 393 renal
NCI/ADR-RES ovarian = system: NCI/ADR-RES ovarian
KM12 colon = system: KM12 colon
SK-MEL-2 melanoma = system: SK-MEL-2 melanoma
HT29 colon = system: HT29 colon
SNB-75 CNS = system: SNB-75 CNS
OVCAR-4 ovarian = system: OVCAR-4 ovarian
HOP-62 NSCLC = system: HOP-62 NSCLC
T-47D breast = system: T-47D breast
NCI-H23 lung = system: NCI-H23 lung
UACC-257 melanoma = system: UACC-257 melanoma
UO-31 renal = system: UO-31 renal
HCC-2998 colon = system: HCC-2998 colon
HCT-15 colon = system: HCT-15 colon
DU-145 prostate = system: DU-145 prostate
PC-3 prostate = system: PC-3 prostate
SR leukemia = system: SR leukemia
K-562 leukemia = system: K-562 leukemia
TK-10 renal = system: TK-10 renal
A498 renal = system: A498 renal
HL-60(TB) leukemia = system: HL-60(TB) leukemia
SF-295 CNS = system: SF-295 CNS
IGROV1 ovarian = system: IGROV1 ovarian
M14 melanoma = system: M14 melanoma
OVCAR-8 ovarian = system: OVCAR-8 ovarian
A549 NSCLC = system: A549 NSCLC
MCF7 breast = system: MCF7 breast
LOX IMVI melanoma = system: LOX IMVI melanoma
MOLT-4 leukemia = system: MOLT-4 leukemia
SK-MEL-5 melanoma = system: SK-MEL-5 melanoma
NCI-H226 lung = system: NCI-H226 lung
SF-268 CNS = system: SF-268 CNS
HCT-116 colon = system: HCT-116 colon
SF-539 CNS = system: SF-539 CNS
786-0 renal = system: 786-0 renal
HOP-92 NSCLC = system: HOP-92 NSCLC
EKVX NSCLC = system: EKVX NSCLC
SN12C renal = system: SN12C renal
CAKI-1 renal = system: CAKI-1 renal
ACHN renal = system: ACHN renal

`C#CCNCCCN1C(=O)c2ccc3c4c(ccc(c24)C1=O)C(=O)N(CCCNCC#C)C3=O` was tested, and the GI50 (SK-OV-3 ovarian) was 645 nM, the TGI (SK-OV-3 ovarian) was 4.32 µM and the GI50 (SW-620 colon) was 154 nM. The TGI (SW-620 colon) was 992 nM, the GI50 (MDA-MB-231 breast) was 670 nM and the TGI (MDA-MB-231 breast) was 5.92 µM. The GI50 (MDA-MB-435) was 189 nM, the TGI (MDA-MB-435) was 404 nM and the GI50 (COLO 205 colon) was 91.1 nM. For the same molecule, the TGI (COLO 205 colon) was 238 nM, the GI50 (SK-MEL-28 melanoma) was 613 nM and the TGI (SK-MEL-28 melanoma) was 2160 nM. For the same molecule, the GI50 (UACC-62 melanoma) was 384 nM, the TGI (UACC-62 melanoma) was 1070 nM and the GI50 (U251 CNS) was 223 nM. The TGI (U251 CNS) was 1020 nM, the GI50 (NCI-H522 lung) was 251 nM and the TGI (NCI-H522 lung) was 841 nM. For the same molecule, the GI50 (OVCAR-3 ovarian) was 277 nM, the TGI (OVCAR-3 ovarian) was 957 nM and the GI50 (CCRF-CEM leukemia) was 295 nM. It also gave a TGI (CCRF-CEM leukemia) of 2890 nM, a GI50 (OVCAR-5 ovarian) of 534 nM and a TGI (OVCAR-5 ovarian) of 2610 nM. For the same molecule, the GI50 (MALME-3M melanoma) was 158 nM, the TGI (MALME-3M melanoma) was 373 nM and the GI50 (HS 578T breast) was 919 nM. The TGI (HS 578T breast) was 4.76 µM, the GI50 (SNB-19 CNS) was 328 nM and the TGI (SNB-19 CNS) was 1450 nM. The GI50 (RPMI-8226 leukemia) was 404 nM, the TGI (RPMI-8226 leukemia) was 4.18 µM and the GI50 (BT-549 breast) was 1440 nM. For the same molecule, the TGI (BT-549 breast) was 2890 nM, the GI50 (NCI-H460 lung) was 101 nM and the TGI (NCI-H460 lung) was 363 nM. It also gave a GI50 (RXF 393 renal) of 228 nM, a TGI (RXF 393 renal) of 1070 nM and a GI50 (NCI/ADR-RES ovarian) of 467 nM. It also gave a TGI (NCI/ADR-RES ovarian) of 3.81 µM, a GI50 (KM12 colon) of 284 nM and a TGI (KM12 colon) of 1330 nM. For the same molecule, the GI50 (SK-MEL-2 melanoma) was 244 nM, the TGI (SK-MEL-2 melanoma) was 729 nM and the GI50 (HT29 colon) was 76.6 nM. For the same molecule, the TGI (HT29 colon) was 539 nM, the GI50 (SNB-75 CNS) was 451 nM and the TGI (SNB-75 CNS) was 1690 nM. The GI50 (OVCAR-4 ovarian) was 137 nM, the TGI (OVCAR-4 ovarian) was 279 nM and the GI50 (HOP-62 NSCLC) was 267 nM. The TGI (HOP-62 NSCLC) was 1560 nM, the GI50 (T-47D breast) was 1020 nM and the TGI (T-47D breast) was 3.9 µM. The GI50 (NCI-H23 lung) was 220 nM, the TGI (NCI-H23 lung) was 669 nM and the GI50 (UACC-257 melanoma) was 181 nM. The TGI (UACC-257 melanoma) was 342 nM, the GI50 (UO-31 renal) was 260 nM and the TGI (UO-31 renal) was 1380 nM. For the same molecule, the GI50 (HCC-2998 colon) was 242 nM, the TGI (HCC-2998 colon) was 766 nM and the GI50 (HCT-15 colon) was 206 nM. The TGI (HCT-15 colon) was 809 nM, the GI50 (DU-145 prostate) was 219 nM and the TGI (DU-145 prostate) was 600 nM. For the same molecule, the GI50 (PC-3 prostate) was 463 nM, the TGI (PC-3 prostate) was 4.41 µM and the GI50 (SR leukemia) was 219 nM. It also gave a TGI (SR leukemia) of 1040 nM, a GI50 (K-562 leukemia) of 230 nM and a TGI (K-562 leukemia) of 1630 nM. For the same molecule, the GI50 (TK-10 renal) was 689 nM, the TGI (TK-10 renal) was 6.88 µM and the GI50 (A498 renal) was 312 nM. It also gave a TGI (A498 renal) of 1410 nM, a GI50 (HL-60(TB) leukemia) of 305 nM and a TGI (HL-60(TB) leukemia) of 988 nM. It also gave a GI50 (SF-295 CNS) of 119 nM, a TGI (SF-295 CNS) of 514 nM and a GI50 (IGROV1 ovarian) of 187 nM. For the same molecule, the TGI (IGROV1 ovarian) was 972 nM, the GI50 (M14 melanoma) was 317 nM and the TGI (M14 melanoma) was 987 nM. The GI50 (OVCAR-8 ovarian) was 180 nM, the TGI (OVCAR-8 ovarian) was 1550 nM and the GI50 (A549 NSCLC) was 134 nM. For the same molecule, the TGI (A549 NSCLC) was 393 nM, the GI50 (MCF7 breast) was 132 nM and the TGI (MCF7 breast) was 328 nM. For the same molecule, the GI50 (LOX IMVI melanoma) was 205 nM, the TGI (LOX IMVI melanoma) was 637 nM and the GI50 (MOLT-4 leukemia) was 188 nM. The TGI (MOLT-4 leukemia) was 869 nM, the GI50 (SK-MEL-5 melanoma) was 140 nM and the TGI (SK-MEL-5 melanoma) was 274 nM. The GI50 (NCI-H226 lung) was 151 nM, the TGI (NCI-H226 lung) was 551 nM and the GI50 (SF-268 CNS) was 404 nM. For the same molecule, the TGI (SF-268 CNS) was 3.05 µM, the GI50 (HCT-116 colon) was 157 nM and the TGI (HCT-116 colon) was 1950 nM. The GI50 (SF-539 CNS) was 470 nM, the TGI (SF-539 CNS) was 1750 nM and the GI50 (786-0 renal) was 778 nM. The TGI (786-0 renal) was 5.36 µM, the GI50 (HOP-92 NSCLC) was 1790 nM and the TGI (HOP-92 NSCLC) was 7.74 µM. For the same molecule, the GI50 (EKVX NSCLC) was 302 nM, the TGI (EKVX NSCLC) was 1130 nM and the GI50 (SN12C renal) was 214 nM. The TGI (SN12C renal) was 949 nM, the GI50 (CAKI-1 renal) was 237 nM and the TGI (CAKI-1 renal) was 955 nM. For the same molecule, the GI50 (ACHN renal) was 144 nM and the TGI (ACHN renal) was 1740 nM.
